In one assay the target is human α7 receptor (Homo sapiens, UniProt P36544). The assay can be described thus: α7 NNR flux assay (FDSS Ca assay). The note with it: positive allosteric modulation; rat GH4C1 cell line stably expressing human α7; acetylcholine 20 μM; % modulation relative to PNU-120596 set to 100%. In kind it is cell-based. A digest of the protocol: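 GH4C1 rat cells stably expressing human α7, loaded with Calcium-4 dye plus 2.5 mM probenecid in HBSS/20 mM HEPES pH 7.4, 3 mM CaCl2. Compounds (0.039–20 μM final) preincubated ~95 s before 20 μM acetylcholine (~EC100); Ex480/Em540 fluorescence on FDSS. Values are % modulation, with 3 μM PNU-120596 set to 100%.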

In a further assay the target is T1, human KCNQ2 (Homo sapiens, UniProt O43526).
T1 construct: expressed in transfected cells
Briefly: 86Rb flux in KCNQ2 expressing cells. It is filed as cell-based. The note with it: KCNQ2 opening; for EC50: 86Rb efflux, CHO-K1 cells stably transfected with human KCNQ2; for Emax: Max effect determined in % of the effect of 30 mM KCl. As to the method:
Chinese hamster ovary cells (CHO-K1) were stably transfected with human KCNQ2 inserted into the pCl-neo vector (Promega). Cells were plated at 2×10^5 cells/ml in 96-well plates in 100 μl media (MEM Alpha media, 10% FBS, 1% P/S, 1% L-Glu, and 1 mg/ml G418). At the time of plating the cells were furthermore loaded with 1 μCi/ml 86Rb over-night. On the subsequent day, the cells were washed with 3×50 μl assay buffer (HBSS+10 mM HEPES, pH 7.4) and incubated in 50 μl buffer with retigabine for 30 minutes at 37° C. Following this preincubation, the cell membrane was depolarized for 30 minutes at 37° C. with 15 mM KCl (final concentration) in assay buffer supplemented with the appropriate amount of compound to maintain drug concentration. The supernatant was removed and placed in pony-vials with 0.5 ml scintillation liquid and counted. The dose-dependent effect of the investigated compounds on the efflux of 86Rb through the hKCNQ2 channels were calculated according to the four parameter logistic equation: Y=Bottom+(Top-Bottom)/(1+10̂((LogEC50-X)*HillSlope)), where X is the logarithm of concentration, Y is the response, and HillSlope is the hill coefficient.
A representative selection of compounds of the invention were tested in the assay in addition to 6 comparative examples wherein 0 has been substituted with a 6-membered ring comprising up to two N atoms. Comparative 1-4 has been disclosed in WO 2009/127678 or WO 2009/127679 and comparative 5-6 are close analogues.

Chain of human α7 receptor (P36544 23-502): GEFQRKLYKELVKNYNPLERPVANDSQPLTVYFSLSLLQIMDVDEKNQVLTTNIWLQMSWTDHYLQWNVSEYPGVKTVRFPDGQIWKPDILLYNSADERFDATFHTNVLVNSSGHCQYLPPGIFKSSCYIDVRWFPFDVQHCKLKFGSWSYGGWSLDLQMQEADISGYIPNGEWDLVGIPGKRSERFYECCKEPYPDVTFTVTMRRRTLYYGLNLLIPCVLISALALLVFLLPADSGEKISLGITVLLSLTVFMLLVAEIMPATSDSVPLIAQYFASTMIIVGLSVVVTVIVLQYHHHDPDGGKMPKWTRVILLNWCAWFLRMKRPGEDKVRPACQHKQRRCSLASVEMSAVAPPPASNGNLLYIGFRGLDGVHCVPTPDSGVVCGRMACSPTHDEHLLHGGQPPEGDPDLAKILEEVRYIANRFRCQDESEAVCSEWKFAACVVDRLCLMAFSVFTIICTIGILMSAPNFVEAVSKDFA

What is called EC50 is the midpoint of the concentration-response curve. Low values mean a more potent agent, high ones a less potent agent. What is called Emax is the size of the effect at its maximum, as opposed to the concentration needed. `Cc1cc(C(=O)NC(C)c2ccc3[nH]c(C(F)(F)F)cc3c2)on1` (single isomer, unassigned) [Compound 96, 3-methyl-N-[1-[2-(trifluoromethyl)-1H-indol-5-yl]ethyl]isoxazole-5-carboxamide] registered an EC50 at human α7 receptor of 4.2 µM. Moreover, at human KCNQ2, the concentration for a half-maximal effect (EC50) is greater than 50 µM and the Emax came out at 5.4%.

On to `Cc1cc2cc(CNC(=O)c3occc3C)ccc2[nH]1` [Compound 1, 3-methyl-N-[(2-methyl-1H-indol-5-yl)methyl]furan-2-carboxamide], for which the EC50 was 2.7 µM on human α7 receptor and greater than 50 µM on human KCNQ2. The Emax on human KCNQ2 worked out at 2%.

`Cc1cc2cc(CNC(=O)c3ccc(C)s3)ccc2[nH]1` [Compound 24, 5-methyl-N-[(2-methyl-1H-indol-5-yl)methyl]thiophene-2-carboxamide]: the EC50 at human α7 receptor was found to be 0.34 µM. Also, on human KCNQ2, the EC50 was greater than 50 µM and the Emax came out at 5%.

On human α7 receptor, `Cc1cc(C(=O)NCc2ccc3[nH]c(C)cc3c2)on1` [Compound 28, 3-methyl-N-[(2-methyl-1H-indol-5-yl)methyl]isoxazole-5-carboxamide] returned an EC50 of 2.97 µM. Further, on human KCNQ2, the Emax was 5.7%.

Molecule `Cc1cc2cc(CNC(=O)c3cnn(C)c3)ccc2[nH]1` [Compound 29, 1-methyl-N-[(2-methyl-1H-indol-5-yl)methyl]pyrazole-4-carboxamide] had an EC50 at human α7 receptor of 9.25 µM. In addition, at human KCNQ2, the EC50 is greater than 50 µM and the Emax was found to be 4%.

As to `Cn1cc(C(=O)NCc2ccc3[nH]c(C(F)(F)F)cc3c2)cn1` [Compound 30, 1-methyl-N-[[2-(trifluoromethyl)-1H-indol-5-yl]methyl]pyrazole-4-carboxamide], the EC50 is 5.8 µM at human α7 receptor and greater than 50 µM on human KCNQ2. Also, at human KCNQ2, the Emax came out at 9.6%.

With `O=C(NCc1ccc2[nH]c(C(F)(F)F)cc2c1)c1ccno1` [Compound 31, N-[[2-(trifluoromethyl)-1H-indol-5-yl]methyl]isoxazole-5-carboxamide], on human KCNQ2, the EC50 was greater than 50 µM and the Emax was determined as 4.8%.

At human α7 receptor, `Cc1cc2cc(CNC(=O)c3cnc(C)s3)ccc2[nH]1` [Compound 35, 2-methyl-N-[(2-methyl-1H-indol-5-yl)methyl]thiazole-5-carboxamide] gave an EC50 of 2.45 µM. Further, the Emax at human KCNQ2 was found to be 7.5%.

Molecule `Cc1cc2cc(CNC(=O)c3cnn(CC(F)(F)F)c3)ccc2[nH]1` [Compound 36, N-[(2-methyl-1H-indol-5-yl)methyl]-1-(2,2,2-trifluoroethyl)pyrazole-4-carboxamide] returned a 50% effective concentration (EC50) at human α7 receptor of 1.49 µM. Moreover, on human KCNQ2, the Emax amounted to 3.3%.

Take `O=C(NCc1ccc2[nH]c(C(F)(F)F)cc2c1)c1cnn(CC(F)(F)F)c1` [Compound 40, 1-(2,2,2-trifluoroethyl)-N-[[2-(trifluoromethyl)-1H-indol-5-yl]methyl]pyrazole-4-carboxamide]: at human α7 receptor, it took 3.5 µM to reach a half-maximal effect (EC50). Further, at human KCNQ2, the EC50 is greater than 50 µM and the Emax is 2.4%.

Molecule `Cc1cc(C(=O)N[C@H](C)c2ccc3[nH]c(C)cc3c2)on1` [Compound 61, 3-methyl-N-[(1R)-1-(2-methyl-1H-indol-5-yl)ethyl]isoxazole-5-carboxamide] showed an EC50 at human α7 receptor of 2.33 µM. Also, the Emax at human KCNQ2 is -5%.

For the molecule `Cc1cc(C(=O)NCc2ccc3[nH]c(C(F)(F)F)cc3c2)on1` [Compound 65, 3-methyl-N-[[2-(trifluromethyl)-1H-indol-5-yl]methyl]isoxazole-5-carboxamide], the EC50 on human α7 receptor was 5 µM. Besides, on human KCNQ2, the Emax stood at 8.1%.

Regarding `Cc1ncc(C(=O)NCc2ccc3[nH]c(C(F)(F)F)cc3c2)s1` [Compound 66, 2-methyl-N-[[2-(trifluoromethyl)-1H-indol-5-yl]methyl]thiazole-5-carboxamide], the results for the EC50 on human α7 receptor and on human KCNQ2 were 8.8 µM and greater than 50 µM, respectively. The Emax on human KCNQ2 was determined as 3.7%.

Turning to `CC(C)c1cc(C(=O)NCc2ccc3[nH]c(C(F)(F)F)cc3c2)on1` [Compound 67, 3-isopropyl-N-[[2-(trifluoromethyl)-1H-indol-5-yl]methyl]isoxazole-5-carboxamide], the EC50 on human α7 receptor was 6.1 µM. For the same molecule, at human KCNQ2, the EC50 was greater than 50 µM and the Emax amounted to 5.3%.

As for `O=C(NCc1ccc2[nH]c(C(F)(F)F)cc2c1)c1ncc(C(F)(F)F)cn1` [Compound C1, 5-Trifluoromethyl-pyrimidine-2-carboxylic acid (2-trifluoromethyl-1H-indol-5-ylmethyl)amide, reference compound], at human KCNQ2, the concentration for a half-maximal effect (EC50) is greater than 50 µM and the Emax came to 34%.

Turning to `O=C(NCc1ccc2[nH]c(C(F)(F)F)cc2c1)c1ccc(-c2ccccc2)nc1` [Compound C2, 6-Phenyl-N-(2-trifluoromethyl-1H-indol-5-ylmethyl)-nicotinamide, reference compound], on human KCNQ2, the EC50 is greater than 50 µM and the Emax was found to be 31%.

In the case of `O=C(NCc1ccc2[nH]c(C(F)(F)F)cc2c1)c1ccc(C(F)(F)F)nc1` [Compound C3, 6-Trifluoromethyl-N-(2-trifluoromethyl-1H-indol-5-ylmethyl)-nicotinamide, reference compound], on human KCNQ2, the response was half-maximal at 17 µM (EC50) and the Emax turned out to be 46%.

On to `N#Cc1ccc(C(=O)NCc2ccc3[nH]c(C(F)(F)F)cc3c2)cn1` [Compound C4, 6-Cyano-N-(2-trifluoromethyl-1H-indol-5-ylmethyl)-nicotinamide, reference compound], for which, at human KCNQ2, the EC50 was greater than 50 µM and the Emax is 15%.

Regarding `COc1ccc(C(=O)NCc2ccc3[nH]c(C)cc3c2)cc1` [Compound C5, 4-Methoxy-N-(2-methyl-1H-indol-5-ylmethyl)-benzamide, reference compound], on human KCNQ2, the concentration for a half-maximal effect (EC50) was greater than 50 µM and the Emax turned out to be 17%.

As to `Cc1cc2cc(CNC(=O)c3ccccc3F)ccc2n1C` [Compound C6, N-(1,2-Dimethyl-1H-indol-5-ylmethyl)-2-fluoro-benzamide, reference compound], on human KCNQ2, the EC50 is greater than 50 µM and the Emax amounted to 13%.
